This note sets out measurements from US11319289B2, “5-hydroxy pyridine-based compound for use as P2X1 and P2X3 receptor antagonist and pharmaceutical composition comprising same” (GWANGJU INSTITUTE OF SCIENCE AND TECHNOLOGY, priority 2017, dated 2022).

Assay [1] relates to SNL rats (mechanical allodynia). As to the kind of experiment: Antiallodynic effect (von Frey) in spinal nerve ligation (SNL) rats. It is filed as in vivo, rat. The note with it: for ED50: Rattus norvegicus, antiallodynic effect, intravenous administration. How it is done:
(§1) 3-1. Evaluation of In Vivo Efficacy
(§2) The antiallodynic effects (mechanical allodynia) were evaluated using rats according to a previously reported protocol. In order to evaluate the withdrawal threshold, rats (naive, SNL and CIPN) were placed on a plastic mesh floor of individual plastic cages. The rats were allowed to acclimate to the environment for 30 minutes and examined after intrathecal or intravenous administration to the caudal vein. The control group received the same volume of vehicle (intrathecal administration of saline or DMSO, intravenous administration of DMSO:PEG:PBS=1:6:3 v/v %) as the experimental groups. Evaluation of the mechanical withdrawal threshold was measured in responses to the application of calibrated von Frey filaments (Stoelting, Wood Dale, Ill., USA) to the hind paw of the rats through the holes on the mesh floor underneath the cage using the ‘up and down method’. A series of eight von Frey filaments (0.4, 0.7, 1.2, 2.0, 3.6, 5.5, 8.5, and 15 g) was applied perpendicular to the sole of the hind paw for 5 seconds while the head was bent. Active withdrawal or flinching of the paw was considered as a positive reaction. The absence of response in the rats, when a pressure was applied to 15 g von Frey filament, was used as a cut-off value. Only rats with definite allodynia (i.e., mechanical withdrawal threshold: less than 4 g after SNL or less than 5 g after CIPN) were tested. The rats after termination of the experiments were euthanized through an overdose of sevoflurane. The withdrawal threshold data for the von Frey filament test was calculated as % MPE (maximum possible effect) based on the following Calculation Equation: % MPE=[(Post-drug threshold−Post-injured baseline threshold)/(Cutoff threshold−post-injured baseline threshold)×100]. Dose-response data were analyzed using Scheffe's post hoc test and one-way analysis of variance (ANOVA).

The test system of assay [2] is neuropathic pain (NeP) animal models. Briefly: Efficacy in neuropathic pain (NeP) animal models, model not specified. The note with it: Rattus norvegicus, read-out: ED50 of clinical drugs for NeP. The assay is classed as in vivo, rat. How it is done:
as §1, §2

The test system of assay [3] is CIPN rats (mechanical allodynia). As to the kind of experiment: Antiallodynic effect (von Frey) in chemotherapy-induced peripheral neuropathy (CIPN) rats. The assay is classed as in vivo. The note with it: Rattus norvegicus, intravenous administration. The method, then:
as §1, §2

`CC(C)C[C@H](CN)CC(=O)O` [pregabalin, reference compound]: the “antiallodynic efficacy, MPE %” value in assay [1] (1 μg, intrathecal administration) is given as 65±9%. Also, the ED50 in assay [2] amounted to 4.21 mg/kg. In the case of `COc1cccc(C2(O)CCCCC2CN(C)C)c1` (stereo not drawn) [tramadol, reference compound], in assay [2], the ED50 came out at 4.67 mg/kg.

With `CCCc1nc(Cc2cccc(Oc3ccccc3)c2)c(C)c(C(=O)OCCN2CCCC2)c1O` [Compound 46e, 2-(pyrrolidin-1-yl)ethyl 3-hydroxy-5-methyl-6-(3-phenoxybenzyl)-2-propylisonicotinate], the ED50 in assay [1] amounted to 3.02 mg/kg; in assay [3], 3.55 mg/kg. The corresponding values for `CCCc1nc(Cc2cccc(Oc3ccccc3)c2)c(C)c(C(=O)OC2CCCC2)c1O` [Compound 46h, Cyclopentyl 3-hydroxy-5-methyl-6-(3-phenoxybenzyl)-2-propylisonicotinate] are 3.64 mg/kg and 3.91 mg/kg. For `CCCc1nc(Cc2cccc(Oc3ccccc3)c2)c(C)c(C(=O)OCCc2ccccc2)c1O` [Compound 46a, Phenethyl 3-hydroxy-5-methyl-6-(3-phenoxybenzyl)-2-propylisonicotinate], in that order: 2.31 mg/kg and 3.02 mg/kg.

In general, ED50 refers to the dose that gives a 50% effect, or the effect in half of the subjects.
